Laboratory results reported in ChEMBL document CHEMBL4152272, “Synthesis and evaluation of novel triazolyl quinoline derivatives as potential antileishmanial agents” (Eur J Med Chem, 2018).
The source made the active and inactive calls. The calls are words filed in the database; no cut-off is given here.

Tests used:
[1] = tested on: Leishmania donovani; experiment: Antileishmanial activity against Leishmania donovani MHOM/IN/80/Dd8 promastigotes harboring luciferase reporter gene after 72 hrs by luminescence assay; type: functional, organism-based; settings: MHOM/IN/80/Dd8, 72 h
[2] = tested on: Leishmania donovani; experiment: Antileishmanial activity against Leishmania donovani MHOM/IN/80/Dd8 amastigotes harboring luciferase reporter gene infected in mouse J774A.1 cells after 72 hrs by luminescence assay; type: functional, organism-based
[3] = tested on: Leishmania donovani; experiment: Antileishmanial activity against Leishmania donovani MHOM/IN/80/Dd8 amastigotes infected in golden hamsters assessed as inhibition of parasite at 20 mg/kg, ip for 5 consecutive days measured on day 7 post last dose by Giemsa staining based assay relative to control; type: functional, organism-based
[4] = tested on: Leishmania donovani; experiment: Antileishmanial activity against Leishmania donovani MHOM/IN/80/Dd8 amastigotes infected in golden hamsters assessed as inhibition of parasite at 20 mg/kg, ip for 5 consecutive days measured on day 28 post last dose by Giemsa staining based assay relative to control; type: functional, organism-based
[5] = Cytotoxicity against mouse J774A.1 cells after 48 hrs by MTT assay; type: cell-based, J774.A1
[6] = Selectivity index, ratio of CC50 for cytotoxicity against mouse J774A.1 cells to IC50 for Leishmania donovani MHOM/IN/80/Dd8 amastigotes harboring luciferase reporter gene infected in mouse J774A.1 cells; type: toxicity, cell-based; settings: read-out: Ratio CC50/IC50
[7] = tested on: Leishmania donovani; experiment: Antileishmanial activity against Leishmania donovani MHOM/IN/80/Dd8 amastigotes infected in golden hamsters assessed as inhibition of parasite at 50 mg/kg, ip for 5 consecutive days measured on day 7 post last dose by Giemsa staining based assay relative to control; type: functional; settings: for inhibition in vivo at 50 mg/kg: MHOM/IN/80/Dd8, ip, 168 h
[8] = tested on: Leishmania donovani; experiment: Antileishmanial activity against Leishmania donovani MHOM/IN/80/Dd8 amastigotes infected in golden hamsters assessed as inhibition of parasite at 50 mg/kg, ip for 5 consecutive days measured on day 28 post last dose by Giemsa staining based assay relative to control; type: functional; settings: MHOM/IN/80/Dd8, ip, 672 h
[9] = Leishmania donovani, MHOM/IN/80/Dd8, J774.A1, 72 h, read-out: IC50

Which IC50 [1] does the source give for `Cc1nc2ccc(Cl)cc2c(-c2ccccc2)c1C(=O)OCc1cn(Cc2ccccc2F)nn1` here?
Its IC50 is 24 µM.

What about the IC50 [2] of the same compound?
The IC50 was “Not Active”.

What does the source list for Sodium Stibogluconate?
inhibition [3]: 81.3%; inhibition [4]: 85.3%

With `Cc1ccc(-n2cc(COC(=O)c3c(C)nc4ccccc4c3-c3ccccc3)nn2)cc1F` as the compound, how does the IC50 [1] read?
The IC50 was 6 µM.

And the IC50 [2, 9]?
Its IC50 is 17 µM.

What about the CC50 at 48 h [5] of the same compound?
Its CC50 at 48 h is 36 µM.

And the selectivity ratio [6]?
The selectivity ratio was 2.12.

With `CCc1ccc(-n2cc(COC(=O)c3c(C)nc4ccc(Cl)cc4c3-c3ccccc3)nn2)cc1` as the compound, how does the IC50 [1] read?
The IC50 was 5 µM.

What about the IC50 [2, 9] of the same compound?
The IC50 was 14 µM.

What about the CC50 at 48 h [5] of the same compound?
Its CC50 at 48 h is 99 µM.

And the selectivity ratio [6]?
Its selectivity ratio is 7.

What about the inhibition in vivo at 50 mg/kg [7] of the same compound?
Its inhibition in vivo at 50 mg/kg is 9.76%.

And the inhibition in vivo at 50 mg/kg [8]?
Its inhibition in vivo at 50 mg/kg is 17.3%.

Which IC50 [1] does the source give for `CCc1ccc(-n2cc(COC(=O)c3c(C)nc4ccccc4c3-c3ccccc3)nn2)cc1` here?
The IC50 was 8 µM.

What about the IC50 [2] of the same compound?
The IC50 was “Not Active”.

Which results are given for `CCCCCCCCCCCCCCCCOP(=O)([O-])OCC[N+](C)(C)C` [MILTEFOSINE]?
IC50 [1]: 1 µM; IC50 [2, 9]: 8 µM; CC50 at 48 h [5]: 56 µM; selectivity ratio [6]: 6.72

What does the source list for `Cc1nc2ccccc2c(-c2ccccc2)c1C(=O)OCc1cn(Cc2ccc(F)cc2)nn1`?
IC50 [1]: 6 µM; IC50 [2]: Not Active

For `Cc1nc2ccc(Cl)cc2c(-c2ccccc2)c1C(=O)OCc1cn(Cc2ccc(F)cc2)nn1`, which IC50 [1] is on record?
Its IC50 is 2 µM.

What about the IC50 [2] of the same compound?
The IC50 was “Not Active”.

With `Cc1nc2ccc(Cl)cc2c(-c2ccccc2)c1C(=O)OCc1cn(Cc2ccc([N+](=O)[O-])cc2)nn1` as the compound, how does the IC50 [1] read?
Its IC50 is 5 µM.

What about the IC50 [2, 9] of the same compound?
The IC50 was 16 µM.

What about the CC50 at 48 h [5] of the same compound?
The CC50 at 48 h was 75 µM.

What about the selectivity ratio [6] of the same compound?
Its selectivity ratio is 4.6.

And the inhibition in vivo at 50 mg/kg [7]?
The inhibition in vivo at 50 mg/kg was 6.63%.

And the inhibition in vivo at 50 mg/kg [8]?
The inhibition in vivo at 50 mg/kg was 22.7%.

For `Cc1nc2ccc(Cl)cc2c(-c2ccccc2)c1C(=O)OCc1cn(Cc2ccccc2)nn1`, which IC50 [1] is on record?
The IC50 was 25 µM.

What about the IC50 [2, 9] of the same compound?
Its IC50 is 7 µM.

And the CC50 at 48 h [5]?
Its CC50 at 48 h is 35 µM.

What about the selectivity ratio [6] of the same compound?
The selectivity ratio was 4.5.

And the inhibition in vivo at 50 mg/kg [7]?
The inhibition in vivo at 50 mg/kg was 37.8%.

And the inhibition in vivo at 50 mg/kg [8]?
Its inhibition in vivo at 50 mg/kg is 46.9%.

With `Cc1nc2ccc(Cl)cc2c(-c2ccccc2)c1C(=O)OCc1cn(-c2ccc(C(C)C)cc2)nn1` as the compound, how does the IC50 [1] read?
Its IC50 is 3 µM.

What about the IC50 [2] of the same compound?
The IC50 was “Not Active”.

What does the source list for `Cc1ccc(-n2cc(COC(=O)c3c(C)nc4ccccc4c3-c3ccccc3)nn2)cc1`?
IC50 [1]: 16 µM; IC50 [2, 9]: 7 µM; CC50 at 48 h [5]: 39 µM; selectivity ratio [6]: 5.58; inhibition [7]: inactive; inhibition in vivo at 50 mg/kg [8]: 40.4%

What does the source list for `Cc1ccc(Cn2cc(COC(=O)c3c(C)nc4ccccc4c3-c3ccccc3)nn2)cc1`?
IC50 [1]: 4 µM; IC50 [2, 9]: 22 µM; CC50 at 48 h [5]: 41 µM; selectivity ratio [6]: 1.81

For `Cc1ccc(Cn2cc(COC(=O)c3c(C)nc4ccc(Cl)cc4c3-c3ccccc3)nn2)cc1`, which IC50 [1] is on record?
The IC50 was 34 µM.

What about the IC50 [2] of the same compound?
The IC50 was “Not Active”.

What does the source list for `Cc1nc2ccccc2c(-c2ccccc2)c1C(=O)OCc1cn(-c2ccc(C(C)(C)C)cc2)nn1`?
IC50 [1]: 7 µM; IC50 [2]: Not Active

With `Cc1nc2ccccc2c(-c2ccccc2)c1C(=O)OCc1cn(-c2ccc(C(C)C)cc2)nn1` as the compound, how does the IC50 [1] read?
The IC50 was 5 µM.

And the IC50 [2]?
Its IC50 is “Not Active”.

Which IC50 [1] does the source give for `Cc1ccc(-n2cc(COC(=O)c3c(C)nc4ccc(Cl)cc4c3-c3ccccc3)nn2)cc1F` here?
The IC50 was 4 µM.

What about the IC50 [2, 9] of the same compound?
The IC50 was 12 µM.

And the CC50 at 48 h [5]?
The CC50 at 48 h was 34 µM.

And the selectivity ratio [6]?
Its selectivity ratio is 2.9.

Which IC50 [1] does the source give for `Cc1nc2ccc(Cl)cc2c(-c2ccccc2)c1C(=O)OCc1cn(-c2ccc(C(C)(C)C)cc2)nn1` here?
The IC50 was 45 µM.

What about the IC50 [2] of the same compound?
Its IC50 is “Not Active”.

What does the source list for `Cc1nc2ccccc2c(-c2ccccc2)c1C(=O)OCc1cn(Cc2ccccc2C#N)nn1`?
IC50 [1]: 10 µM; IC50 [2]: Not Active

With `Cc1ccc(-n2cc(COC(=O)c3c(C)nc4ccc(Cl)cc4c3-c3ccccc3)nn2)cc1` as the compound, how does the IC50 [1] read?
The IC50 was 10 µM.

And the IC50 [2]?
The IC50 was “Not Active”.

Which IC50 [1] does the source give for `Cc1nc2ccccc2c(-c2ccccc2)c1C(=O)OCc1cn(Cc2ccccc2)nn1` here?
The IC50 was 10 µM.

And the IC50 [2]?
Its IC50 is “Not Active”.

For `Cc1nc2ccccc2c(-c2ccccc2)c1C(=O)OCc1cn(Cc2ccccc2F)nn1`, which IC50 [1] is on record?
Its IC50 is 4 µM.

And the IC50 [2]?
Its IC50 is “Not Active”.

With `Cc1nc2ccccc2c(-c2ccccc2)c1C(=O)OCc1cn(Cc2ccc([N+](=O)[O-])cc2)nn1` as the compound, how does the IC50 [1] read?
Its IC50 is 9 µM.

And the IC50 [2, 9]?
The IC50 was 18 µM.

What about the CC50 at 48 h [5] of the same compound?
The CC50 at 48 h was 42 µM.

What about the selectivity ratio [6] of the same compound?
Its selectivity ratio is 2.3.

With `Cc1nc2ccccc2c(-c2ccccc2)c1C(=O)OCc1cn(-c2ccc(F)cc2)nn1` as the compound, how does the IC50 [1] read?
Its IC50 is 22 µM.

And the IC50 [2]?
The IC50 was “Not Active”.

With `COc1cccc(Cn2cc(COC(=O)c3c(C)nc4ccccc4c3-c3ccccc3)nn2)c1` as the compound, how does the IC50 [1] read?
The IC50 was 16 µM.

What about the IC50 [2, 9] of the same compound?
The IC50 was 34 µM.

And the CC50 at 48 h [5]?
The CC50 at 48 h was 36 µM.

And the selectivity ratio [6]?
The selectivity ratio was 1.

With `Cc1nc2ccc(Cl)cc2c(-c2ccccc2)c1C(=O)OCc1cn(-c2ccc(F)cc2)nn1` as the compound, how does the IC50 [1] read?
Its IC50 is 17 µM.

What about the IC50 [2] of the same compound?
The IC50 was “Not Active”.

Which IC50 [1] does the source give for `COc1cccc(Cn2cc(COC(=O)c3c(C)nc4ccc(Cl)cc4c3-c3ccccc3)nn2)c1` here?
Its IC50 is 7 µM.

And the IC50 [2]?
Its IC50 is “Not Active”.
